Results from patent US20190254285A1, “SODIUM PHOSPHITE COMBINATIONS” (priority 2016, published 2019).

Experiments:
Botrytis cinerea = Botrytis cinerea rot on wounded apple and banana fruit; type: in vivo; set-up: key: Different results are indicated by different letters; Different results are indicated by different letters; Different results are indicated by different letters; Different results are indicated by different letters; Different results are indicated by different letters
Excerpt: Tested fruit: apple (cv Elstar) and a banana (cv Cavendish) from organic origin/SKAL certified. SKAL is a semi-governmental Dutch organization that controls organic production in the Netherlands.
Used pathogen: Botrytis cinerea spore-suspension containing ˜3×10^5 propagules (spores)/ml.
Application: Fruit peel was damaged with a cork borer, depth ˜0.5 cm into the fruit, 2 wounds per apple fruit; 2 wounds per banana fruit. 30 microliters of a freshly prepared spore suspension of B. cinerea (estimated 3×10^5 spores/ml) were applied by pipette onto each wound. Subsequently, the spore-suspension was allowed to air-dry for 3 hours. 50 microliters of fungicide suspensions 1-6 were applied by pipette to each wound.
All fruits were kept at room temperature (20° C.).
Replicates: All treatments (1-6) were performed on 6 individual apples and 6 individual bananas with 2 wounds each resulting in 12 wounds per fruit per treatment. The recorded observed antifungal activity is the reduction (in percentages) of the average surface of the rot as observed in the 12 wounds compared to the rot surface of the untreated control.
Observation: All wounds were inspected daily for visual symptoms of fruit rot and/or fungus growth. Rot surface was determined after 5 and 7 days (see Tables 1, 2 and 3). The recorded observed antifungal activity is the surface of the rot.

black sigatoka = assay: Black sigatoka on banana plants, single leaf test, leaf 3 curative, DITHANE 60 SC; type: in vivo; details: for Area infected (%) / Efficacy: 8 DAA, leaf 3 curative, DITHANE 60 SC 5 liter/ha; for Area infected (%): phosphites 2 mol/l at 3 liter/ha; for Efficacy: vs untreated control
Procedure: A single leaf test was established in a research station located in the community of “Anita Grande,” county of Jimenez, province of Limon, Costa Rica (latitude 10°15′14.15″N, longitude 83°44′20.29″W).
Every treatment was established in individual plants. Treatments were applied to leaf number 1 to determine their effect as preventive. Leaf position is counted from top to bottom, whereby leaf number 1 is closest to the unfolded leaf. Treatments were distributed systematically to facilitate their location in the field.
Product applications were done in an area of 10×10 cm, with a special equipment designed to simulate aerial applications. Application was done at 35 pound-force per square inch. Since weather conditions were highly conducive for disease development, and inoculum density was very high, no artificial inoculation was done. All treatments were applied to the same position on the leaf to minimize experimental error. All treatments were applied at the equivalent volume of 25 L ha^−1, as it is done commercially. A total of 3 sprays were applied, application A at Day 0, application B at 7 days after application A (DAA), and application C at day 13 DAA. VOLLEY® 88 OL was sprayed at 5.525 L/ha and the different phosphites were applied at the same PO3 concentration of 2 mol/l and were sprayed at 3 liter/ha.
For the evaluation of the efficacy, the diseased area that was affected in the 10×10 cm leaf area was recorded. Evaluations were done 23, 30 and 36 DAA. Efficacy was calculated by comparing the treatments against the untreated control.
Similar to Example 8, with the following differences: DITHANE® 60 SC (Dow AgroSciences) at a rate of 5 liter/ha was applied instead of […] and only one measurement was performed at 23 days after application A (DAA).
Similar to Example 9, with the following differences: Treatments and measurements were applied to leaf number 3, to determine their effect as curative, and one measurement was performed at 8 days after application A (DAA).

Plasmopara viticola [1] = assay: Downy mildew on grapevine plants in greenhouse, phosphites and DITHANE Neotec; type: in vivo; details: for Incidence: 21 days after the second treatment application, phosphite 1.50 l of 2 M solution/100 l, DITHANE Neotec 0.05 kg/100 liter water
Procedure: The trial was conducted with young plants of grapevine cultivar MERLOT in a greenhouse. Treatments were applied twice, once when 3 to 4 leaves were unfolded and the second application 10 days later. Each treatment had 4 plots as replications. The experimental set up was completely randomized and each plot had 3 plants. Inoculation of the plants with the pathogen Plasmopara viticola was performed 4 days after the second application. The suspension of the spores in water was prepared at the concentration of 20,000 to 40,000 spores/ml. All foliage ware inoculated. The different phosphites were applied at the same molar concentration of phosphite. With the high phosphite treatments, a concentration of 1.50 1 of a 2 M solution/100 1 was used and with the low phosphite treatment a concentration of 0.75 1 of a 2 M solution/100 1. […] An assessment on incidence and severity was performed 21 and 28 days after the second application. Efficacy was calculated for severity in comparison to untreated control infected. Similar to Example 5, with the following amendments: […] One measurement was performed at 21 days after the second application.

Plasmopara viticola [2] = assay: Downy mildew on grapevine plants in greenhouse, phosphites and REVUS; type: in vivo; details: conclusion from Table 5
Procedure: The trial was conducted with young plants of grapevine cultivar MERLOT in a greenhouse. […] Treatments were applied twice, once when 3 to 4 leaves were unfolded and the second application 10 days later. […] Inoculation of the plants with the pathogen Plasmopara viticola was performed 4 days after the second application. The suspension of the spores in water was prepared at the concentration of 20,000 to 40,000 spores/ml. All foliage ware inoculated. The different phosphites were applied at the same molar concentration of phosphite. With the high phosphite treatments, a concentration of 1.50 1 of a 2 M solution/100 1 was used and with the low phosphite treatment a concentration of 0.75 1 of a 2 M solution/100 1. […] An assessment on incidence and severity was performed 21 and 28 days after the second application. Efficacy was calculated for severity in comparison to untreated control infected.

grapevine plants = assay: Phytotoxicity on grapevine plants; set-up: species or system grapevine cultivar MERLOT; details: in vivo
Procedure: Treatments were applied twice, once when 3 to 4 leaves were unfolded and the second application 10 days later. […] The experimental set up was completely randomized and each plot had 3 plants. Inoculation of the plants with the pathogen Plasmopara viticola was performed 4 days after the second application. The suspension of the spores in water was prepared at the concentration of 20,000 to 40,000 spores/ml. All foliage ware inoculated. The different phosphites were applied at the same molar concentration of phosphite. With the high phosphite treatments, a concentration of 1.50 1 of a 2 M solution/100 1 was used and with the low phosphite treatment a concentration of 0.75 1 of a 2 M solution/100 1. REVUS® was used with a standard concentration of 0.015 liter/100 liter. An assessment on incidence and severity was performed 21 and 28 days after the second application. Efficacy was calculated for severity in comparison to untreated control infected.

[3] = Table 1, phosphonate Concentration 1, mandipropamid control
[4] = Table 1, phosphonate Concentration 2, mandipropamid control
[5] = Table 1, phosphonate Concentration 3, mandipropamid control
[6] = Table 2, phosphonate Concentration 2, mefenoxam control

Compound | Effect on fungicidal attack of Botrytis on apple and banana (Botrytis cinerea; [3]) | Effect on fungicidal attack of Botrytis on apple and banana (Botrytis cinerea; [4]) | Effect on fungicidal attack of Botrytis on apple and banana (Botrytis cinerea; [5]) | Effect on fungicidal attack of Botrytis on apple and banana (Botrytis cinerea; [6]) | Area infected (%) (black sigatoka) | Efficacy (black sigatoka) | Incidence (Plasmopara viticola [1]) | Increase of the fungal efficacy of REVUS compared with other phosphite salts (Plasmopara viticola [2]) | Phytotox (%) (grapevine plants) | Effect on fungicidal attack of Botrytis on apple and banana (Botrytis cinerea; Table 3, Na2HPO3 part, Concentration 1, mandipropamid control) | Effect on fungicidal attack of Botrytis on apple and banana (Botrytis cinerea; Table 3, Na2HPO3 part, Concentration 2, mandipropamid control) | Effect on fungicidal attack of Botrytis on apple and banana (Botrytis cinerea; Table 3, Na2HPO3 part, Concentration 3, mandipropamid control) | Increase of the fungal efficacy of DITHANE 60 SC compared with other phosphite salts (black sigatoka; conclusion from Table 10, curative) | Increase of the fungal efficacy of DITHANE Neotec compared with other phosphite salts (Plasmopara viticola [1]; conclusion from Table 6)
N.N.O=[PH](O)O [(NH4)2HPO3] | d | c | b | c | 9.2 | 58.6 |  |  |  |  |  |  |  | 
O=[PH]([O-])[O-].[K+].[K+] [Treatment K2HPO3] | d | c | b | c | 12.6 | 43.2 | 5.0 |  |  |  |  |  |  | 
disodium hydrogen phosphite [Na2HPO3] | d | c | b | c | 15.4 | 30.6 | 10.0 | increases the fungal efficacy of REVUS® the best | 0 | d | c | b | increases the fungal efficacy of DITHANE® 60 SC the best | increases the fungal efficacy of DITHANE® Neotec the best
